Measurements as given in US20250034173A1, “PYRIDO[4,3-D]PYRIMIDINE COMPOUNDS” (PFIZER INC., priority 2023, published 2025).

What was measured:
[1] = system: H358 (non-small cell lung cancer cell line); test: KRAS Cell Titer Glo (CTG) cell proliferation assay, H358; format: cell-based; conditions: Homo sapiens, NCI-H358, 168 h; H358 cells, 7-day CTG, geomean IC50
Method in brief: (§1)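 Compounds pre-dispensed in 0.1% DMSO before seeding H358 (300 cells/well), SW620 (750) or PANC08.13 (600); 7-day exposure at 37 °C, 5% CO2. Viability by CellTiter-Glo luminescence after 15 min at room temperature. Percent effect normalised to DMSO (0%) and 1 uM trametinib (100%); geomean IC50.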

[2] = target: T1, KRAS G12D (Homo sapiens (Human), UniProt P01116, G12D); test: SPR binding affinity and kinetics, GDP-loaded KRAS G12D; conditions: GDP loaded protein, geomean
Description: (§2) No additional regeneration was used.
(§3) Compound dissociation was monitored for at least 3600 seconds. […] No additional regeneration was used.
(§4) The adequateness of the fit was judged by c2 values and the randomness of residue distribution.

[3] = target: T2, KRAS G12V (Homo sapiens (Human), UniProt P01116, G12V); test: SPR binding affinity and kinetics, GDP-loaded KRAS G12V; conditions: GDP loaded protein, geomean
Description: as §2, §3, §4

[4] = target: T2, KRAS G12V; test: SPR binding affinity and kinetics, GTPγS-loaded KRAS G12V; conditions: GTPγS loaded protein, geomean
Method in brief: (§5)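 Kinetic and affinity values come from fitted SPR sensorgrams, the fit accepted on c2 values and randomly distributed residues. Dissociation was followed for at least 3600 seconds without any additional regeneration.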

[5] = target: T3, KRAS Wild Type (Homo sapiens (Human), UniProt P01116); test: SPR binding affinity and kinetics, GDP-loaded KRAS Wild Type; conditions: GDP loaded protein, geomean
Description: as §2, §3, §4

[6] = target: T4, KRAS G12C (Homo sapiens (Human), UniProt P01116, G12C); test: SPR binding affinity and kinetics, GDP-loaded KRAS G12C; conditions: GDP loaded protein, geomean
Description: as §2, §3, §4

[7] = target: T1, KRAS G12D; test: SPR binding affinity and kinetics, GTPγS-loaded KRAS G12D; conditions: GTPγS loaded protein, geomean
Method in brief: as §5

[8] = system: SW620 (colorectal cancer cell line); test: KRAS Cell Titer Glo (CTG) cell proliferation assay, SW620; format: cell-based; conditions: Homo sapiens, SW-620, 168 h; SW620 cells, 7-day CTG, geomean IC50
Method in brief: as §1

[9] = target: NRAS Wild Type (Homo sapiens (Human), UniProt P01111); test: SPR binding affinity and kinetics, GTPγS-loaded NRAS Wild Type; conditions: GTPγS loaded protein, geomean
Method in brief: as §5

[10] = target: HRAS Wild Type (Homo sapiens (Human), UniProt P01112); test: SPR binding affinity and kinetics, GTPγS-loaded HRAS Wild Type; conditions: GTPγS loaded protein, geomean
Method in brief: as §5

[11] = system: PANC08.13 (pancreatic cancer cell line); test: KRAS Cell Titer Glo (CTG) cell proliferation assay, PANC08.13; format: cell-based; conditions: Homo sapiens, PANC-08-13, 168 h; PANC08.13 cells, 7-day CTG, geomean IC50
Method in brief: as §1

[12] = target: T4, KRAS G12C; test: SPR binding affinity and kinetics, GTPγS-loaded KRAS G12C; conditions: GTPγS loaded protein, geomean
Method in brief: as §5

[13] = target: T3, KRAS Wild Type; test: SPR binding affinity and kinetics, GTPγS-loaded KRAS Wild Type; conditions: GTPγS loaded protein, geomean
Method in brief: as §5

T4 sequence (P01116 other isoform, or with tags, fused parts or gaps G12C): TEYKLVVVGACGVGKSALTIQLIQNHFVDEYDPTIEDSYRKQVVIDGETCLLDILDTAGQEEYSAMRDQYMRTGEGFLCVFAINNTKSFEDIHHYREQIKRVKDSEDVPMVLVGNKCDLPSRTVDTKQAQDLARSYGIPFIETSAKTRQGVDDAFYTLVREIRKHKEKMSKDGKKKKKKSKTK
T1 sequence (P01116 other isoform, or with tags, fused parts or gaps G12D): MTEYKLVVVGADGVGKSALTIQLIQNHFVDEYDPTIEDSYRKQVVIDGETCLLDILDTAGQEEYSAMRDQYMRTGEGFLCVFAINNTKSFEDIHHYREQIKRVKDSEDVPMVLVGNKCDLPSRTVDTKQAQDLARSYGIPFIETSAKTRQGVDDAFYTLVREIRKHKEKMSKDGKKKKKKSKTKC
T3 sequence (P01116 other isoform, or with tags, fused parts or gaps): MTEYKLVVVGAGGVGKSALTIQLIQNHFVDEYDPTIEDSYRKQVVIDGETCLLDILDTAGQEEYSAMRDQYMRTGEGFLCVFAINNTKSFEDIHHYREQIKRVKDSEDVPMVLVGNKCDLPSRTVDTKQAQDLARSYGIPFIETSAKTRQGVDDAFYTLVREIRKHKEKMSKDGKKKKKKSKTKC
T2 sequence (P01116 other isoform, or with tags, fused parts or gaps G12V): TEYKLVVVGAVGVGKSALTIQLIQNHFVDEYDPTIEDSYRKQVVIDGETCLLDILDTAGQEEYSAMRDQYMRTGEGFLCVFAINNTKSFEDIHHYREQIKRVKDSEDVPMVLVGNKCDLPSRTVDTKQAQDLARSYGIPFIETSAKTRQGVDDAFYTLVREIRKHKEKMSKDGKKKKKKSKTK
NRAS Wild Type, sequence (P01111 2-185): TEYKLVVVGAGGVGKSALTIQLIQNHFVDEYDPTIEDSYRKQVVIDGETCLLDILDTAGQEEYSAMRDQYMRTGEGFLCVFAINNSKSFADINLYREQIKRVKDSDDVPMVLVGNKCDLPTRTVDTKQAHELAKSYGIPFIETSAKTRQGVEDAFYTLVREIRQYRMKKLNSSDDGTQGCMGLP
HRAS Wild Type, sequence (P01112 2-184): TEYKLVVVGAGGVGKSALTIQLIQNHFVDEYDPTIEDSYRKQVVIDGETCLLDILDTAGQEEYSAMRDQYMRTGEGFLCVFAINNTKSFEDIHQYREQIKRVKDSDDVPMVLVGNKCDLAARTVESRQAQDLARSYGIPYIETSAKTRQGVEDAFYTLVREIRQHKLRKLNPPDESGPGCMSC

| Structure (SMILES) | IC50 [1] | Kd [2] | Kd [3] | Kd [4] | Kd [5] | Kd [6] | Kd [7] | IC50 [8] | Kd [9] | Kd [10] | IC50 [11] | Kd [12] | Kd [13] |
| --- | --- | --- | --- | --- | --- | --- | --- | --- | --- | --- | --- | --- | --- |
| Fc1c(-c2c(C3CC3)c(Cl)cc3[nH]ncc23)nc2c3c(nc(OC[C@@]45CCCN4C[C@H](F)C5)nc13)N1CCCOC[C@H]1CO2 [Example 1, (8aS)-5-(6-chloro-5-cyclopropyl-1H-indazol-4-yl)-4-fluoro-2-{[(2R,7aS)-2-fluorotetrahydro-1H-pyrrolizin-7a(5H)-yl]methoxy}-8a,9,12,13-tetrahydro-8H,11H-7,10-dioxa-1,3,6,13a-tetraazanaphtho[1,8-ab]heptalene] | 73 nM | 0.048 nM | 0.105 nM | 8 nM | 0.038 nM | 0.031 nM | 10 nM | 83 nM | > 10000 nM | > 10000 nM | 7 nM | 12 nM | 14 nM |
| C=C1CN2CCC[C@@]2(COc2nc3c4c(nc(-c5c(C6CC6)c(Cl)cc6[nH]ncc56)c(F)c4n2)OC[C@@H]2COCCCN32)C1 [Example 2, (8aS)-5-(6-chloro-5-cyclopropyl-1H-indazol-4-yl)-4-fluoro-2-{[(7aS)-2-methylidenetetrahydro-1H-pyrrolizin-7a(5H)-yl]methoxy}-8a,9,12,13-tetrahydro-8H,11H-7,10-dioxa-1,3,6,13a-tetraazanaphtho[1,8-ab]heptalene] | 10 nM | 0.041 nM | 0.144 nM | 4 nM | 0.004 nM | 0.019 nM | 1 nM | 14 nM | > 10000 nM | > 10000 nM | < 2 nM | 5 nM | 5 nM |
| C=C1CN2CCC[C@@]2(COc2nc3c4c(nc(-c5c(Cl)ccc6[nH]ncc56)c(F)c4n2)OC[C@@H]2COCCCN32)C1 [Example 6, (8aS)-5-(5-chloro-1H-indazol-4-yl)-4-fluoro-2-{[(7aS)-2-methylidenetetrahydro-1H-pyrrolizin-7a(5H)-yl]methoxy}-8a,9,12,13-tetrahydro-8H,11H-7,10-dioxa-1,3,6,13a-tetraazanaphtho[1,8-ab]heptalene] | 847 nM | 0.956 nM | 1.23 nM | 639 nM | 2.51 nM | 0.894 nM | 467 nM | 1320 nM |  |  | 404 nM | 635 nM | 546 nM |
| C=C1CN2CCC[C@@]2(COc2nc3c4c(nc(-c5c(C(F)F)ccc6[nH]ncc56)c(F)c4n2)OC[C@@H]2COCCCN32)C1 [Example 10, (8aS)-5-[5-(difluoromethyl)-1H-indazol-4-yl]-4-fluoro-2-{[(7aS)-2-methylidenetetrahydro-1H-pyrrolizin-7a(5H)-yl]methoxy}-8a,9,12,13-tetrahydro-8H,11H-7,10-dioxa-1,3,6,13a-tetraazanaphtho[1,8-ab]heptalene] | 4540 nM | 2.07 nM | 3.9 nM | 2820 nM | 8.03 nM | 1.81 nM | 2550 nM | 9530 nM |  |  | 475 nM | 3230 nM | 2880 nM |

Results, then the compound that gave them:

| IC50 [1] | Kd [2] | Kd [3] | Kd [4] | Kd [5] | Kd [6] | Kd [7] | IC50 [8] | Kd [9] | Kd [10] | IC50 [11] | Kd [12] | Kd [13] | Structure (SMILES) |
| --- | --- | --- | --- | --- | --- | --- | --- | --- | --- | --- | --- | --- | --- |
| 136 nM | 0.024 nM | 0.067 nM | 29 nM | 0.091 nM | 0.051 nM | 19 nM | 315 nM |  |  | 21 nM | 39 nM | 40 nM | C=C1CN2CCC[C@@]2(COc2nc3c4c(nc(-c5c(Cl)c(Cl)cc6[nH]ncc56)c(F)c4n2)OC[C@@H]2COCCCN32)C1 [Example 11, (8aS)-5-(5,6-dichloro-1H-indazol-4-yl)-4-fluoro-2-{[(7aS)-2-methylidenetetrahydro-1H-pyrrolizin-7a(5H)-yl]methoxy}-8a,9,12,13-tetrahydro-8H,11H-7,10-dioxa-1,3,6,13a-tetraazanaphtho[1,8-ab]heptalene] |
| 211 nM | 0.116 nM | 0.106 nM | 62 nM | 0.257 nM | 0.122 nM | 42 nM | 463 nM |  |  | 35 nM | 84 nM | 95 nM | C=C1CN2CCC[C@@]2(COc2nc3c4c(nc(-c5c(C(F)(F)F)ccc6[nH]ncc56)c(F)c4n2)OC[C@@H]2COCCCN32)C1 [Example 12, (8aS)-4-fluoro-2-{[(7aS)-2-methylidenetetrahydro-1H-pyrrolizin-7a(5H)-yl]methoxy}-5-[5-(trifluoromethyl)-1H-indazol-4-yl]-8a,9,12,13-tetrahydro-8H,11H-7,10-dioxa-1,3,6,13a-tetraazanaphtho[1,8-ab]heptalene] |
| 26 nM | 0.106 nM | 0.072 nM | 3 nM | < 0.001 nM | 0.017 nM | 1 nM | 70 nM |  |  | 7 nM | 4 nM | 5 nM | C=C1CN2CCC[C@@]2(COc2nc3c4c(nc(-c5c(C(F)(F)F)c(Cl)cc6[nH]ncc56)c(F)c4n2)OC[C@@H]2COCCCN32)C1 [Example 13, (8aS)-5-[6-chloro-5-(trifluoromethyl)-1H-indazol-4-yl]-4-fluoro-2-{[(7aS)-2-methylidenetetrahydro-1H-pyrrolizin-7a(5H)-yl]methoxy}-8a,9,12,13-tetrahydro-8H,11H-7,10-dioxa-1,3,6,13a-tetraazanaphtho[1,8-ab]heptalene] |
